These results are taken from patent US5595995A, “Pyridyl-propan-2-yl esters of 1-adamantane carboxylates” (priority 1992, dated 1997).

pIC50: −log10 of the molar value.

Data set [1] in a line: resistance of the esters to hydrolytic cleavage (method of R. McCague et al., 1990). To be noted: compared with the other esters of Examples 1-8.
For data set [2], the target named is T1, aromatase (Homo sapiens, UniProt P11511).
T1 sequence (P11511 1-503): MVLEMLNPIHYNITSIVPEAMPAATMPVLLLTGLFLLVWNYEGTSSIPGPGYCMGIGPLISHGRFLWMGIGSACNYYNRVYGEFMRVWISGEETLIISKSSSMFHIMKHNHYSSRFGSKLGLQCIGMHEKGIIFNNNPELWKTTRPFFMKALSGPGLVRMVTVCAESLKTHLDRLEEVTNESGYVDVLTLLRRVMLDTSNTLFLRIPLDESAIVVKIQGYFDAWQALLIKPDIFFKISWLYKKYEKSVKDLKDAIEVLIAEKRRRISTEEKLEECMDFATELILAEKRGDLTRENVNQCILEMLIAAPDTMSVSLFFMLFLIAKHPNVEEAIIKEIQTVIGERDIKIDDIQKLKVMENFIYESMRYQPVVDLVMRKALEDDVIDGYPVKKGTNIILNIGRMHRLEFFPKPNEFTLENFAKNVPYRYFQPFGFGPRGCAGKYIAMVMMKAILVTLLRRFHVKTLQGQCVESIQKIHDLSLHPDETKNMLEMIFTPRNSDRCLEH
Kind of data set: biochemical.

Data set [3] concerns the target T2, lyase (Homo sapiens, UniProt P05093).
T2 sequence (P05093 1-508): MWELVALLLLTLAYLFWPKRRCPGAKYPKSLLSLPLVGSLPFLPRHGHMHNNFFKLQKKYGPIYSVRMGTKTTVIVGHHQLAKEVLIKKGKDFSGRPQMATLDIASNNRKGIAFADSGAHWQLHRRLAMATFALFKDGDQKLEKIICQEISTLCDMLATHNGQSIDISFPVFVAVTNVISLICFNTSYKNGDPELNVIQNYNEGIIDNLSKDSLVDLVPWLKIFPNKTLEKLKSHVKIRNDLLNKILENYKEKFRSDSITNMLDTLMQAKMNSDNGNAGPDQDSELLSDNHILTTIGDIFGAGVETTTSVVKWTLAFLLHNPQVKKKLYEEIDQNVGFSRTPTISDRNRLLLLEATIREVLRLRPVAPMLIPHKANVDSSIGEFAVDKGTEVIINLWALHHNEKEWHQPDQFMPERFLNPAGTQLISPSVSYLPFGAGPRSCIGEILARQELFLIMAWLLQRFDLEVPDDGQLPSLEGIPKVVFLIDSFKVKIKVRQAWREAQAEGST
The data set can be described thus: biochemical.
Procedure: (§1) In the hydroxylase assay, the "Nucleosil" pre-column for separation of steroids was also "C18". In the lyase assay, the reaction was stopped after 1/2 hour. […] The enzyme activity was measured from 3 (not 4) concentrations of compound.

For data set [4], the target named is T3, hydroxylase (Homo sapiens, UniProt P05093).
T3 sequence (P05093 1-508): T2 sequence (P05093 1-508)
The data set can be described thus: biochemical.
Procedure: as §1

Data set [5] relates to a species of yeast. To be noted: Korytnyk and Fricke, J. Med. Chem. 11, 180-181 (1968); cited from earlier work.
Data set [6] relates to acute toxicity in mice of 4-vinylpyridine. The conditions noted are these: J. Med. Chem. 16, 865-867 (1973); cited from earlier work.
In data set [7] the target is T4, 17α-hydroxylase/C17-20 lyase enzyme complex (Homo sapiens, UniProt P05093).
T4 construct: for hydroxylase determinations, the microsomal preparation, prepared according to S. E. Bartie et al; from tissue
T4 sequence (P05093 1-508): T2 sequence (P05093 1-508)
The data set can be described thus: hydroxylase/lyase inhibition, general statements on potency. The class given is biochemical. The conditions noted are these: of the order of; greater than the less good compounds of formula (3).
Procedure: as §1

`CC(C)(OC(=O)C12CC3CC(CC(C3)C1)C2)c1ccncc1` [Example 4, 2-(4-Pyridyl)propan-2-yl 1-adamantanecarboxylate]: in data set [1], the “resistance to hydrolytic cleavage” value is recorded as “considerably more resistant to cleavage than the other esters”.
As to `O=C(CCc1cccnc1)C12CC3CC(CC(C3)C1)C2` [Example 9, 1-(1-Adamantyl)-3-(3-pyridyl)propan-1-one], the figures for the pIC50 in data set [2], in data set [3] and in data set [4] were 5.47, 6.35 and 5.66, respectively.
`Cc1c(COC(=O)C23CC4CC(CC(C4)C2)C3)cnc(CO)c1O`: the “growth inhibition of yeast” value in data set [5] is “weak growth inhibitors of a species of yeast”. Further, the “reversal of the acute toxicity of 4-vinylpyridine” value in data set [6] is “reverse the acute toxicity in mice of 4-vinylpyridine”.
As for `O=C(NCc1ccncc1)C1CCCCC1` [Cy NH H H 4, reference compound], in data set [7], the “IC50 against lyase and hydroxylase relative to the less good compounds of formula (3)” value was roughly 20 ×. The pIC50 – broadly, the IC50 on a negative log10 scale, so that one unit is a factor of ten – in data set [3] was 5.00; in data set [4], 4.40.
With `CC(C)(OC(=O)C12CC3CC(CC(C3)C1)C2)c1cccnc1` [Example 8, 2-(3-Pyridyl)propan-2-yl 1-adamantanecarboxylate], the “resistance to hydrolytic cleavage” value in data set [1] is recorded as “considerably more resistant to cleavage than the other esters”.
On to `CC(CC(=O)C12CC3CC(CC(C3)C1)C2)c1cccnc1` (racemic) [Example 10, (±)-1-(1-Adamantyl)-3-(3-pyridyl)butan-1-one], for which the results for the pIC50 in data set [2], in data set [3] and in data set [4] were 5.85, 6.30 and 5.89, respectively.
`CC(Cc1cccnc1)C(=O)C12CC3CC(CC(C3)C1)C2` (racemic) [Example 11, (±)-1-(1-Adamantyl)-2-methyl-3-(3-pyridyl)propan-1-one]: the pIC50 in data set [2] was 5.57; in data set [3] it was 6.15; in data set [4], 6.00.
On to `Cc1c(COC(=O)C23CC4CC(CC(C4)C2)C3)cc(CO)nc1O`, for which the “growth inhibition of yeast” value in data set [5] is recorded as “weak growth inhibitors of a species of yeast”.
